According to patent US12637465B2, “Pharmaceutically acceptable salts of sepiapterin” (PTC Therapeutics MP, Inc., priority 2018, dated 2026):

How the values were obtained:
Type in all cases: physicochemical
[1] = Solid form stability study of salts and/or co-crystals at 25° C./60% RH and 40° C./75% RH; details: for Underwent a form change during the stability testing: 1 and 2 weeks, 25° C./60% RH and 40° C./75% RH
Description: The stability of the prepared salts and/or co-crystals was analyzed after 1 and 2 weeks at 25° C. and 60% relative humidity and 40° C. and 75% relative humidity. […] None of the phosphate, tartrate, or nicotinate salts and/or co-crystals underwent a form change during the stability testing, and each of them retained greater than 97% purity over the two weeks of the study. In fact, both the tartrate and nicotinate both retained greater than 99% purity.

[2] = Kinetic solubility in water and Medisca Oral Mix (HPLC solubility, purity and pH of supernatant); details: RT; for Purity (area %) of supernatant: for reference only; for Solubility: calculated using freebase, target conc. 7 mg/mL
Description: The kinetic solubility was evaluated for nicotinate, phosphate, L-tartrate, and fumarate salts and/or co-crystals of sepiapterin in water and […] Oral Mix. X-ray powder diffraction (XRPD) was performed for the residual solids to identify form change/disproportionation. Solids were suspended into the media with target conc. of 7 mg/mL (calculated by freebase).

[3] = Form change/disproportionation of residual solids by XRPD after suspension in water or Medisca Oral Mix; details: for Form change (residual solids, XRPD): RT; for Form of the residual solids in Medisca Oral Mix / Form of the residual solids in water: after 1 hour
Description: The kinetic solubility was evaluated for nicotinate, phosphate, L-tartrate, and fumarate salts and/or co-crystals of sepiapterin in water and […] Oral Mix. X-ray powder diffraction (XRPD) was performed for the residual solids to identify form change/disproportionation. Solids were suspended into the media with target conc. of 7 mg/mL (calculated by freebase). […] Oral Mix after 1 hour. […] Oral Mix.

[4] = Medisca Oral Mix, 1 hr, listed as L-tartrate salt and/or co-crystal
[5] = Medisca Oral Mix, 4 hr, listed as L-tartrate salt and/or co-crystal
[6] = Medisca Oral Mix, 24 hr, listed as L-tartrate salt and/or co-crystal
[7] = Water, 1 hr, listed as L-tartrate salt and/or co-crystal
[8] = Water, 4 hr, listed as L-tartrate salt and/or co-crystal
[9] = Water, 24 hr, listed as L-tartrate salt and/or co-crystal
[10] = Medisca Oral Mix, 1 hr, listed as nicotinate salt and/or co-crystal
[11] = Medisca Oral Mix, 4 hr, listed as nicotinate salt and/or co-crystal
[12] = Medisca Oral Mix, 24 hr, listed as nicotinate salt and/or co-crystal
[13] = Water, 1 hr, listed as nicotinate salt and/or co-crystal
[14] = Water, 4 hr, listed as nicotinate salt and/or co-crystal
[15] = Water, 24 hr, listed as nicotinate salt and/or co-crystal

C[C@H](O)C(=O)C1=Nc2c(nc(N)[nH]c2=O)NC1 [L-Tartrate, sepiapterin]
Stability compared with the other salts and/or co-crystals tested [1]: noticeably more stable than the others | Underwent a form change during the stability testing [1]: None | Form change ([1]; 1 week, 25° C./60% RH): No | Purity (Area %) ([1]; 1 week, 25° C./60% RH): 98.61 Area % | Purity vs. initial (%) ([1]; 1 week, 25° C./60% RH): 99.9% | Form change ([1]; 1 week, 40° C./75% RH): No | Purity (Area %) ([1]; 1 week, 40° C./75% RH): 99.06 Area % | Purity vs. initial (%) ([1]; 1 week, 40° C./75% RH): 99.3% | Form change ([1]; 2 weeks, 25° C./60% RH): No | Purity (Area %) ([1]; 2 weeks, 25° C./60% RH): 99.39 Area % | Purity vs. initial (%) ([1]; 2 weeks, 25° C./60% RH): 99.6% | Form change ([1]; 2 weeks, 40° C./75% RH): No | Purity (Area %) ([1]; 2 weeks, 40° C./75% RH): 99.00 Area % | Purity vs. initial (%) ([1]; 2 weeks, 40° C./75% RH): 99.3% | Purity (Area %) ([1]; Initial): 99.75 Area % | Observation ([2]; Medisca Oral Mix, 1 hr): Turbid | Purity (area %) of supernatant [2, 4]: 99.68 area % | pH [2, 4]: 3.3 | Observation ([2]; Medisca Oral Mix, 4 hr): Turbid | Solubility [2, 5]: 2500 µg/mL | Purity (area %) of supernatant [2, 5]: 99.54 area % | pH [2, 5]: 3.3 | Observation ([2]; Medisca Oral Mix, 24 hr): Turbid | Solubility [2, 6]: 3200 µg/mL | Purity (area %) of supernatant [2, 6]: 95.67 area % | pH [2, 6]: 3.3 | Observation ([2]; Water, 1 hr): Turbid | Purity (area %) of supernatant [2, 7]: 99.34 area % | pH [2, 7]: 2.5 | Observation ([2]; Water, 4 hr): Turbid | Purity (area %) of supernatant [2, 8]: 99.07 area % | pH [2, 8]: 2.5 | Observation ([2]; Water, 24 hr): Turbid | Purity (area %) of supernatant [2, 9]: 95.61 area % | pH [2, 9]: 2.5 | Form change (residual solids, XRPD) [3, 4]: Yes | Form change (residual solids, XRPD) [3, 5]: Yes | Form change (residual solids, XRPD) [3, 6]: Yes | Form of the residual solids in Medisca Oral Mix ([3]; Medisca Oral Mix): converted to freebase | Form change (residual solids, XRPD) [3, 7]: Yes | Form change (residual solids, XRPD) [3, 8]: Yes | Form change (residual solids, XRPD) [3, 9]: Yes | Form of the residual solids in water [3]: converted to freebase

C[C@H](O)C(=O)C1=Nc2c(nc(N)[nH]c2=O)NC1 [Nicotinate, sepiapterin]
Stability compared with the other salts and/or co-crystals tested [1]: noticeably more stable than the others | Underwent a form change during the stability testing [1]: None | Form change ([1]; 1 week, 25° C./60% RH): No | Purity (Area %) ([1]; 1 week, 25° C./60% RH): 97.43 Area % | Purity vs. initial (%) ([1]; 1 week, 25° C./60% RH): 100.3% | Form change ([1]; 1 week, 40° C./75% RH): No | Purity (Area %) ([1]; 1 week, 40° C./75% RH): 97.30 Area % | Purity vs. initial (%) ([1]; 1 week, 40° C./75% RH): 100.2% | Form change ([1]; 2 weeks, 25° C./60% RH): No | Purity (Area %) ([1]; 2 weeks, 25° C./60% RH): 97.45 Area % | Purity vs. initial (%) ([1]; 2 weeks, 25° C./60% RH): 100.3% | Form change ([1]; 2 weeks, 40° C./75% RH): No | Purity (Area %) ([1]; 2 weeks, 40° C./75% RH): 97.41 Area % | Purity vs. initial (%) ([1]; 2 weeks, 40° C./75% RH): 100.3% | Purity (Area %) ([1]; Initial): 97.16 Area % | Observation ([2]; Medisca Oral Mix, 1 hr): Turbid | Purity (area %) of supernatant [2, 10]: 99.76 area % | pH [2, 10]: 3.1 | Observation ([2]; Medisca Oral Mix, 4 hr): Turbid | Purity (area %) of supernatant [2, 11]: 99.60 area % | pH [2, 11]: 3.1 | Observation ([2]; Medisca Oral Mix, 24 hr): Turbid | Purity (area %) of supernatant [2, 12]: 97.00 area % | pH [2, 12]: 3.1 | Observation ([2]; Water, 1 hr): Turbid | Purity (area %) of supernatant [2, 13]: 98.97 area % | pH [2, 13]: 2.1 | Observation ([2]; Water, 4 hr): Turbid | Purity (area %) of supernatant [2, 14]: 99.04 area % | pH [2, 14]: 2.1 | Observation ([2]; Water, 24 hr): Turbid | Purity (area %) of supernatant [2, 15]: 96.54 area % | pH [2, 15]: 2.1 | Form change (residual solids, XRPD) [3, 10]: Yes | Form change (residual solids, XRPD) [3, 11]: Yes | Form change (residual solids, XRPD) [3, 12]: Yes | Form of the residual solids in Medisca Oral Mix ([3]; Medisca Oral Mix): converted to freebase | Form change (residual solids, XRPD) [3, 13]: Yes | Form change (residual solids, XRPD) [3, 14]: Yes | Form change (residual solids, XRPD) [3, 15]: Yes | Form of the residual solids in water [3]: converted to freebase
